Patent publication US11312722B2, “Hsp90 inhibitors and uses thereof” (TRUSTEES OF BOSTON UNIVERSITY, priority 2019, dated 2022)

Experiments:
[1] = biological target: Hsp90 (C. albicans whole cell lysate) (Candida albicans (strain SC5314 / ATCC MYA-2876) (Yeast), UniProt P46598); assay: biochemical; type: binding; settings: for C. alb Active (biochemical): Yes/No call; for EC50: read-out: C. alb EC50
Protocol: (§1) All analogs were assessed for Hsp90 binding affinity using a fluorescence polarization (FP)-based equilibrium competition assay in fungal and human whole cell lysates. […] Using lysates, the relative potency and selectivity for fungal Hsp90 was measured versus the entire ensemble of human Hsp90 isoforms in microplate format using small amounts of test materials. […] Thermal shift assays were performed under saturating ligand conditions, i.e. equimolar concentrations (10 μM) of protein and ligand. As a result, they provided qualitative evidence of target binding, but not a quantitative measurement of ligand affinity. For quantitation, a ligand dissociation constant (Ki) for key compounds was also determined using purified NBDs in FP assays and KD measurements were made by surface plasmon resonance (SPR) using a Biacore instrument. Finally, all analogs were assessed for whole cell antifungal activity against the pathogens C. albicans and C. neoformans.
(§2) FP assays. Whole cell lysates were prepared for FP assays as described previously. Total protein concentration of human and yeast lysates was determined by Bradford assay. […] Serial dilutions of test Hsp90 inhibitors were then assayed under these same conditions to monitor loss of fluorescence polarization as an indicator of probe displacement from Hsp90. […] Titrations of test compound in 25 μL of binding buffer (supplemented with 0.1 mg/mL bovine gamma globulin), were mixed with an equal volume of freshly prepared whole-cell lysate spiked with Cy3-GdA (0.1 nM). Plates were incubated at room temperature for 4.5 h to achieve equilibrium binding for the geldanamycin-based probe. […] Non-linear 4-parameter curve fitting of raw displacement data was performed in GraphPad Prism 5.0 to determine EC50 values as a measure of relative Hsp90-binding affinity. Results were normalized to the value determined for GdA in lysate of each cell type.
(§3) Statistical methods. […] In calculating the error of selectivity determinations, the fractional error of measurements in each species was summed to yield a composite error for the derived ratio.

[2] = tested on: Hsp90 (C. albicans whole cell lysate); assay: biochemical; type: binding; settings: for C. alb Selective: Yes/No call
Protocol: as §1, §2, §3

[3] = biological target: Hsp90 (C. neoformans whole cell lysate) (Cryptococcus neoformans, UniProt J9VVA4); type: binding; settings: for EC50: read-out: C. neo EC50; for C. neo Active (biochemical): Yes/No call
Protocol: as §1, §2, §3

[4] = tested on: Hsp90 (C. neoformans whole cell lysate); type: binding; settings: for C. neo Selectivity (FS): C. neo FS calculated using EC50
Protocol: as §1, §2, §3

[5] = tested on: C. neoformans (Strain H99); assay: Antifungal sensitivity testing (MIC), C. neoformans H99; type: cell-based; settings: for MIC80 / MIC90: Cryptococcus neoformans; for MIC80: read-out: C. neo MIC80; for MIC90: read-out: C. neo MIC90; for C. neo Active (cells): Yes/No call
Protocol: Color scale bar: no growth inhibition (green) to complete inhibition (black). Each shaded box represents the mean of technical duplicates. The experiment was repeated as an independent biological replicate to confirm results.
Minimum inhibitory concentration (MIC) value for compounds against C. neoformans (Strain H99) was determined in dose-response format, in technical duplicate. Experiments were conducted in RPMI medium at 37° C. for 48 h. Relative viable cell number was measured by standard dye reduction (resazurin) assay.
Yeast strains and culture conditions. Strains used in this study were C. albicans CaCi2 (clinical isolate 2), [58] SC5314, [59] and C. neoformans H99. […] Active cultures were maintained on solid (2% agar) yeast extract peptone (YPD, 1% yeast extract, 2% bactopeptone, 2% glucose) at 4° C. for no more than one month.
Antifungal sensitivity testing. […] Each compound was tested in duplicate in at least two independent experiments. […] Plates were photographed after 24 h of incubation at 30° C.

[6] = biological target: C. neoformans Hsp90 NBD (Cryptococcus neoformans, UniProt J9VVA4); assay: Protein thermal shift assay, C. neoformans Hsp90 NBD; type: binding; settings: equimolar protein and ligand (10 μM)
Protocol: […]. Using recombinant proteins, assay-independent nanomolar inhibitory constants (Ki) were defined for these compounds. Binding of the compounds to their relevant NBD by thermal shift denaturation assays was also confirmed. Thermal shift assays were performed under saturating ligand conditions, i.e. equimolar concentrations (10 μM) of protein and ligand. As a result, they can provide only qualitative evidence of target binding, but not a quantitative measurement of ligand affinity. […] […]. C. neoformans or C. albicans Hsp90 NBD was combined with equimolar concentrations of the indicated bioactive inhibitors (10 μM) or DMSO control, in technical triplicates. The protein was heated from 25 to 98.6° C. at 0.2° C./5 s in the presence of Sypro Orange dye. All compounds induce an increase in melting temperature relative to the DMSO control, reported as ΔTm.
Protein thermal shift assays. Thermal melting curves were determined using a Protein Thermal Shift Kit (ThermoFisher #4462263), employing a CFX384 Real-Time PCR System (Bio-Rad, C1000 Touch Thermal Cycler). Reactions were performed in a final volume of 10 μL, and contained purified C. albicans or C. neoformans Hsp90 NBD diluted to 250 μg/mL in Buffer HBS-P (GE Healthcare Life Sciences, 0.01 M HEPES pH 7.4, 0.15 M NaCl, 0.005% v/v Surfactant P20) with 10 μM synthetic analog or DMSO control, and 1× Sypro Orange dye solution. Samples were prepared in triplicate in 384-well white plates (Bio-Rad; HSP3805). The instrument was set to melt curve, step 1 (25° C., 2 min) and step 2 (ramp to 98.6° C., increasing 0.2° C. per 5 s cycle). The inflection point of each curve is defined as the protein melting temperature (Tm). Temperature shift, ΔTm, was recorded as the difference between the Tm of the fungal Hsp90 NBD with compound minus Tm of the protein without compound.

[7] = mouse liver microsomes; for % remaining at 15 min (NADPH-free): NADPH-free control; for % remaining at 15 min / % remaining at 60 min: with NADPH
[8] = in vitro; settings: both, CD-1, mouse; for half-life: microsomes

Sequence of Hsp90 (C. neoformans whole cell lysate) (Cryptococcus neoformans, UniProt J9VVA4) (J9VVA4 1-699): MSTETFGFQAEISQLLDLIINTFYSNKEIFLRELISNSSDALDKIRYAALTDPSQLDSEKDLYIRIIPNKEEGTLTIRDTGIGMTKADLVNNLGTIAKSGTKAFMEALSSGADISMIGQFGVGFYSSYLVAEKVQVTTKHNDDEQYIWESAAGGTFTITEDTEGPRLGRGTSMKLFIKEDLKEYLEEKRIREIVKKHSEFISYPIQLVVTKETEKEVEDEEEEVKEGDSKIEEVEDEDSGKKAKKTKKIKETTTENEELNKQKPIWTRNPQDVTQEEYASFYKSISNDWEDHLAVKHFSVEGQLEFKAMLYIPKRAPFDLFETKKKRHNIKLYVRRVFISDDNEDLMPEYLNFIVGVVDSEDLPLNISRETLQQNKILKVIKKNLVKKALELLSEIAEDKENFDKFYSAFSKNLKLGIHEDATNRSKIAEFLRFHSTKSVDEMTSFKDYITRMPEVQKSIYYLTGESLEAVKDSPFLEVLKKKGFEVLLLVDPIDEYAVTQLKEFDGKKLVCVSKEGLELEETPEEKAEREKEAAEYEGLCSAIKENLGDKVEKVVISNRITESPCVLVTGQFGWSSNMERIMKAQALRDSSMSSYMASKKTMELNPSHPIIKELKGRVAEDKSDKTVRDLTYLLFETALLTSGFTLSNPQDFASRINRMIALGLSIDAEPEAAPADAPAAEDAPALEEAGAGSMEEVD
Sequence of C. neoformans Hsp90 NBD (J9VVA4 1-699): as above

CN1CCN(c2ccc3c(c2)CN(C(=O)c2c(O)cc(O)cc2Nc2cc(-c4cccc(C(F)(F)F)c4)nn2C)C3)CC1 [ACSM01487]
C. alb Active (biochemical) [1]: Yes | EC50 [1]: 1160 nM | C. alb Selectivity (FS) [2]: 2.3 | C. alb Selective [2]: No | EC50 [3]: 55 nM | C. neo Selectivity (FS) [4]: 50.1 | C. neo MIC80 [5]: >25 µM | C. neo MIC90 [5]: >25 µM

Cn1nc(-c2ccccc2C(F)(F)F)cc1Nc1cc(O)cc(O)c1C(=O)N1Cc2ccncc2C1 [ACSM01491]
C. alb Active (biochemical) [1]: Yes | EC50 [1]: 724 nM | C. alb Selectivity (FS) [2]: 3.9 | C. alb Selective [2]: No | EC50 [3]: 47 nM | C. neo Selectivity (FS) [4]: 62.2 | C. neo MIC80 [5]: >25 µM | C. neo MIC90 [5]: >25 µM

COc1cccc(-c2cc(Nc3cc(O)cc(O)c3C(=O)N3Cc4ccncc4C3)n(C)n2)c1 [ACSM01492]
C. alb Active (biochemical) [1]: Yes | EC50 [1]: 10600 nM | C. alb Selectivity (FS) [2]: 1.1 | C. alb Selective [2]: No | EC50 [3]: 258 nM | C. neo Selectivity (FS) [4]: 46.2 | C. neo MIC80 [5]: >25 µM | C. neo MIC90 [5]: >25 µM

COc1ccccc1-n1nc(C)c(Nc2cc(O)cc(O)c2C(=O)N2Cc3ccccc3C2)c1C [ACSM01493, (2,4-Dihydroxy-6-((1-(2-methoxyphenyl)-3,5-dimethyl-1H-pyrazol-4-yl)amino)phenyl)(isoindolin-2-yl)methanone]
C. alb Active (biochemical) [1]: Yes | EC50 [1]: 1060 nM | C. alb Selectivity (FS) [2]: 1.2 | C. alb Selective [2]: No | EC50 [3]: 191 nM | C. neo Selectivity (FS) [4]: 7.2 | MIC80 [5]: > 25 µM | MIC90 [5]: > 25 µM

Cc1nn(-c2cccc(C(F)(F)F)c2)c(C)c1Nc1cc(O)cc(O)c1C(=O)N1Cc2ccccc2C1 [ACSM01494, (2-((3,5-Dimethyl-1-(3-(trifluoromethyl)phenyl)-1H-pyrazol-4-yl)amino)-4,6-dihydroxyphenyl)(isoindolin-2-yl)methanone]
C. alb Active (biochemical) [1]: Yes | EC50 [1]: 1590 nM | C. alb Selectivity (FS) [2]: 1.8 | C. alb Selective [2]: No | EC50 [3]: 30 nM | C. neo Selectivity (FS) [4]: 97.7 | MIC80 [5]: > 25 µM | MIC90 [5]: > 25 µM

COc1ccc(Cn2nc(-c3ccccc3)cc2Nc2cc(O)cc(O)c2C(=O)N2Cc3ccncc3C2)cc1 [BUCMD00433]
C. alb Active (biochemical) [1]: Yes | EC50 [1]: 11 nM | C. alb Selectivity (FS) [2]: 31 | C. alb Selective [2]: Yes | C. neo Active (biochemical) [3]: Yes | EC50 [3]: 75 nM | C. neo Selectivity (FS) [4]: 13 | C. neo selective ([4]; Yes/No call): Yes | C. neo MIC80 [5]: >25 µM | C. neo MIC90 [5]: >25 µM | C. neo Active (cells) [5]: No

COc1ccc(Cn2nc(-c3ccccc3)cc2Nc2cc(O)cc(O)c2C(=O)N2Cc3cccc(F)c3C2)cc1 [Compound 27, 4-(4-Fluoro-2,3-dihydro-1H-isoindole-2-carbonyl)-5-((1-((4-methoxyphenyl)methyl)-3-phenyl-1H-pyrazol-5-yl)amino)benzene-1,3-diol]
C. neoformans NBD ΔTm [6]: 12 °C

CC(C)c1ccc(Cn2nccc2Nc2cc(O)cc(O)c2C(=O)N2Cc3ccccc3C2)cc1 [Compound 83, (2,4-Dihydroxy-6-((1-(4-isopropylbenzyl)-1H-pyrazol-5-yl)amino)phenyl)(isoindolin-2-yl)methanone]
C. alb Active (biochemical) [1]: Yes | % remaining at 15 min (NADPH-free) [7]: 109.1% | % remaining at 15 min [7]: 3.4% | % remaining at 60 min [7]: 1.8% | CLint scaled at 1 μM ([8]; liver microsomes): 1770 mL/min/kg | half-life [8]: 3.1 min | MIC80 [5]: > 25 µM | MIC90 [5]: > 25 µM

Cn1nc(C2CCCCC2)cc1Nc1cc(O)cc(O)c1C(=O)N1Cc2cn[nH]c2C1 [Compound 105, 5-((3-Cyclohexyl-1-methyl-1H-pyrazol-5-yl)amino)-4-(1H,4H,5H,6H-pyrrolo[3,4-c]pyrazole-5-carbonyl)benzene-1,3-diol]
% remaining at 15 min (NADPH-free) [7]: 103.6% | % remaining at 15 min [7]: 2.3% | % remaining at 60 min [7]: 0% | CLint scaled at 1 μM ([8]; liver microsomes): 1990 mL/min/kg | half-life at 1 μM ([8]; liver microsomes): 2.7 min

Cc1cccc(-c2cc(Nc3cc(O)cc(O)c3C(=O)N3Cc4cn[nH]c4C3)n(C)n2)c1 [Compound 111, 5-((1-Methyl-3-(3-methylphenyl)-1H-pyrazol-5-yl)amino)-4-(1H,4H,5H,6H-pyrrolo[3,4-c]pyrazole-5-carbonyl)benzene-1,3-diol]
C. alb Active (biochemical) [1]: Yes | % remaining at 15 min (NADPH-free) [7]: 115.3% | % remaining at 15 min [7]: 20.2% | % remaining at 60 min [7]: 1.8% | CLint scaled at 1 μM ([8]; liver microsomes): 582 mL/min/kg | half-life [8]: 9.4 min | MIC80 [5]: > 25 µM | MIC90 [5]: > 25 µM

Cn1nc(-c2ccc(C(C)(C)C)cc2)cc1Nc1cc(O)cc(O)c1C(=O)N1Cc2cn[nH]c2C1 [Compound 129, 5-((3-(4-tert-Butylphenyl)-1-methyl-1H-pyrazol-5-yl)amino)-4-(1H,4H,5H,6H-pyrrolo[3,4-c]pyrazole-5-carbonyl)benzene-1,3-diol]
% remaining at 15 min (NADPH-free) [7]: 97.9% | % remaining at 15 min [7]: 21.1% | % remaining at 60 min [7]: 0.5% | C. neo Active (biochemical) [3]: Yes | CLint scaled at 1 μM ([8]; liver microsomes): 847 mL/min/kg | half-life [8]: 6.4 min | MIC80 [5]: > 25 µM | MIC90 [5]: > 25 µM | C. neo Active (cells) [5]: No
